In patent publication US10919884B2, “Amide compounds for treatment of immune and inflammatory disorders” (Achillion Pharmaceuticals, Inc., priority 2015, dated 2021):

Target: Human Factor D (Homo sapiens (Human), UniProt P00746)
Test: Human Factor D Assay
Type: biochemical
Conditions: Human Factor D purified from human serum, 80 nM; substrate Z-L-Lys-SBzl and DTNB 100 μM each; assay of Example 12
Protocol: Example 12. Human Factor D Assay
Human Factor D (purified from human serum, Complement Technology, Inc.) at 80 nM final concentration is incubated with test compound at various concentrations for 5 minutes at room temperature in 50 mM Tris, 1 M NaCl, pH 7.5. A synthetic substrate Z-L-Lys-SBzl and DTNB (Ellman's reagent) are added to final concentrations of 100 μM each. Absorbance at 405 nm (A405) is recorded at 30 second intervals for 30 minutes using a microplate spectrophotometer. IC50 values are calculated by nonlinear regression of complement Factor D reaction rates as a function of test compound concentration.
The assay of Example 12 was used to determine the IC50's of the compounds. Other standard Factor D inhibition assays are also available.

Human Factor D, sequence (P00746 26-253): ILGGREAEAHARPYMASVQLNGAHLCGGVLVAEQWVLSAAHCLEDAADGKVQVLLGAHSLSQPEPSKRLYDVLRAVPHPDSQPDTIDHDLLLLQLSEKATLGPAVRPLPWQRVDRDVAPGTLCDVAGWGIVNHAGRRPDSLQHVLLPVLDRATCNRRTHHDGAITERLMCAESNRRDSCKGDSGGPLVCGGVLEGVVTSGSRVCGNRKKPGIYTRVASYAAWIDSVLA

For `Cc1cccc(NC(=O)[C@@H]2CC=CCN2C(=O)Cn2cc(C(N)=O)c3cc(NC(=O)N4CCCC(F)(F)C4)ccc32)n1` [Compound 1, (S)-5-(3,3-difluoropiperidine-1-carboxamido)-1-(2-(6-((6-methylpyridin-2-yl)carbamoyl)-5,6-dihydropyridin-1(2H)-yl)-2-oxoethyl)-1H-indole-3-carboxamide], the IC50 was > 10 µM.
With `Cc1cccc(C[C@@H](O)[C@H]2C[C@@H](F)CN2C(=O)Cn2cc(C(N)=O)c3cc(NC(=O)N4CCCC(F)(F)C4)ccc32)n1` [Compound 2, 5-(3,3-difluoropiperidine-1-carboxamido)-1-(2-((2R,4R)-4-fluoro-2-((R)-1-hydroxy-2-(6-methylpyridin-2-yl)ethyl)pyrrolidin-1-yl)-2-oxoethyl)-1H-indole-3-carboxamide] the IC50 was > 10 µM.
With `Cc1cccc(C[C@H](O)[C@@H]2C[C@@H](F)CN2C(=O)Cn2cc(C(N)=O)c3cc(NC(=O)N4CCCC(F)(F)C4)ccc32)n1` [Compound 3, 5-(3,3-difluoropiperidine-1-carboxamido)-1-(2-((2S,4R)-4-fluoro-2-((S)-1-hydroxy-2-(6-methylpyridin-2-yl)ethyl)pyrrolidin-1-yl)-2-oxoethyl)-1H-indole-3-carboxamide] the IC50 was > 10 µM.
In the case of `Cc1cccc(NC(=O)[C@@H]2CCC(F)CCN2C(=O)Cn2cc(C(N)=O)c3cc(NC(=O)N4CCCC(F)(F)C4)ccc32)n1` (stereo partly drawn) [Compound 4, 5-(3,3-difluoropiperidine-1-carboxamido)-1-(2-((2S)-5-fluoro-2-((6-methylpyridin-2-yl)carbamoyl)azepan-1-yl)-2-oxoethyl)-1H-indole-3-carboxamide], the IC50 is reported as > 10 µM.
`Cc1cccc(NC(=O)[C@@H]2CC=CCN2C(=O)Cn2cc(C(N)=O)c3cc(C(=O)NS(=O)(=O)C4CC4)ccc32)n1` [Compound 5, (S)-N5-(cyclopropylsulfonyl)-1-(2-(6-((6-methylpyridin-2-yl)carbamoyl)-5,6-dihydropyridin-1(2H)-yl)-2-oxoethyl)-1H-indole-3,5-dicarboxamide] was tested, and the IC50 was > 10 µM.
